Series [1] can be described thus: Hydrogen peroxide production assay (TCEP/DTNB, 96-well) in presence of Cu(II). The settings on record: for effect of chelating agent on hydrogen peroxide production by Vitamin C and antipsychotics: FIG. 7. The procedure:
To determine whether antipsychotics themselves could be the source of peroxidation in TD, we measured hydrogen peroxide formation in vitro using a novel 96-well assay developed specifically for that purpose. The production of hydrogen peroxide is assayed by a modification of a published method (Han, J. C. and Han, G. Y., Anal. Biochem. 220:5-10 (1994); Han, J., et al., Anal. Biochem. 234:107-109 (1996)). […] Antipsychotics (10 μM) were assayed for hydrogen peroxide formation in PBS (pH 7.4) in the presence of 10 μM Cu(II).
Ten μM of antipsychotics and 10 μM of Cu(II) were co-incubated with 100 μM of a H2O2-trapping reagent, Tris(2-Carboxyethyl)-Phosphine Hydrochloride (TCEP), in PBS (pH 7.4) at 37° C. for 1 hour.

The test system of another series is rats. The experiment in a line: Rodent model of vacuous chewing (TD model). Type of series: in vivo, rat. Conditions: 24 weeks treatment, 12 weeks withdrawal, FIG. 12. Here is the method: There are two major animal models of TD. The first is a primate model of antipsychotic-induced dyskinesia. Ten to thirty percents of Cebus or Maccaca monkeys will develop clinical dyskinesia after long-term antipsychotic treatment. The second is a rodent model of vacuous chewing. In the rodent model, when the animals are treated with antipsychotics, they develop vacuous chewing, whic phenomenological similarities to the orobuccofacial movement of TD. Only 30-60% of rats will develop vacuous chewing. The chewing movement is enhanced after the withdrawal of antipsychotic treatment. […] (FIG. 12.)

The next series relates to SOD and catalase. Conditions: rats, chronic treatment; cited from earlier work.
A further series deals with tardive dyskinesia. The settings on record: patients with TD; cited from earlier work.

As to `Cc1cc(-c2ccc(S(=O)(=O)O)cc2)c2ccc3c(-c4ccc(S(=O)(=O)O)cc4)cc(C)nc3c2n1` [bathocuproine disulfonate (BC), bathocuproine disulfonate], in series [1], the “effect of chelating agent on hydrogen peroxide production by Vitamin C and antipsychotics” value was “significantly attenuate the production of hydrogen peroxide”. With `CN1CCN(C2=Nc3cc(Cl)ccc3Nc3ccccc32)CC1` [clozapine], the “induction of vacuous chewing” value with rats is “only induce vacuous chewing in a small portion of the animals”. For the compound `OCCN1CCN(CCCN2c3ccccc3Sc3ccc(C(F)(F)F)cc32)CC1` [fluphenazine], in series [1] (FIG. 6), the “dependence of hydrogen peroxide generation on copper concentration” value is “dependent on the concentration of copper”. In addition, the “dependence of hydrogen peroxide generation on drug concentration” value in series [1] (dose response, FIG. 5) is recorded as “concentration dependent”. In addition, in the series with SOD and catalase, the “SOD and catalase activities in the nervous system” value is “cause a decrease in SOD and catalase activities”. In the case of `NCCNCCNCCN` [triethylenetetramine (TETA), triethylenetetramine], the “effect of chelating agent on hydrogen peroxide production by Vitamin C and antipsychotics” value in series [1] is “significantly attenuate the production of hydrogen peroxide”. Take Vitamin E: the “effect on symptoms of TD” value in the series on tardive dyskinesia is given as “reverses the symptoms of TD”.

These data come from patent US20020084230A1, “Methods for screening drugs to predict tardive dyskinesia” (priority 1997, published 2002).
